{"source": "patent US12312641B2", "about": "“Sensitivity marker for antibody-drug conjugate” (priority 2018, dated 2025)", "assay_type_in_all_cases": "cell-based", "key": {"[1]": {"test_system": "Human pharyngeal cancer cell line FaDu", "assay": "Cell proliferation inhibition test upon SLFN11 knockdown, FaDu", "settings": "for Cell proliferation inhibitory effect upon SLFN11 knockdown: FaDu cell lines, SLFN11 siRNA vs Non-targeting Control; for Fold change (SLFN11/Non-targeting Control): ratio of IC50", "protocol": "(§1) Human pharyngeal cancer cell line FaDu was obtained from ATCC and used for evaluation. FaDu cells suspended at 2×10^3 cells/mL in a MEM medium containing a non-essential amino acid solution, a pyruvic acid solution and 10% bovine fetal serum were seeded in a 10 cm cell culture dish at 10 mL/dish. Twenty-four hours after seeding, 100 pmol of ON-TARGETplus SLFN11 siRNA (Dharmacon Inc.) or ON-TARGETplus Non-targeting Control Pool (Dharmacon Inc.) and 30 μL of Lipofectamine™ RNAiMAX Transfection Reagent (Thermo Fisher Scientific Inc.) were suspended in 1 mL of Opti-MEM medium, and the entire amount of the suspension was added to the medium. After 72 hours, the medium was removed and the dish was washed with PBS, then the cells were dissociated and recovered from the dish using 1 mL of TrypLE™ Express. The recovered cells were suspended at 5×10^4 cells/mL in a MEM medium containing a non-essential amino acid solution, a pyruvic acid solution and 10% bovine fetal serum, and were seeded in a 96-well cell culture plate at 100 μL/well. Twenty-four hours after seeding, the medium was replaced with a medium containing 100 nM, 33 nM, 11 nM, 3.7 nM, 1.2 nM, 0.41 nM, 0.13 nM, 0.045 nM, or 0 nM of compound (1) or antibody-drug conjugate (1) at 100 μL/well. The molar concentration of antibody-drug conjugate (1) was calculated by setting the average molecular weight to 150,000. Cells were all cultured at 37° C. under 5% CO2. After 72 hours from the medium replacement, ATPlite 1 step detection system (PerkinElmer Inc.) was added at 100 μL/well. The wells were incubated at room temperature for 10 minutes, then the luminescence intensity of each well was measured.\n(§2) The cell growth inhibition rate(%) at each condition was calculated using the following calculation formula: Cell growth inhibition rate (%)=100×(1−T/C) • T: Average luminescence intensity of each well to which specimen was added • C: Average luminescence intensity of each well to which 0 nM specimen was added\n(§3) The 50% inhibitory concentration at each condition was calculated by fitting to the following calculation formula: Cell viability (%)=(Emax−Emin)×Specimen concentration^γ/((Emax−50)/(50−Emin)×IC50^γ+Specimen concentration^γ)+Emin • Emax: maximum cell growth inhibition rate (%) • Emin: minimum cell growth inhibition rate (%) • IC50: 50% inhibitory concentration • γ: Hill coefficient\n(§4) The fitting to the calculation formula was performed using SAS Systems Release 9.2 (SAS Institute Inc.)."}, "[2]": {"test_system": "Human breast cancer cell line MDA-MB-468", "assay": "Cell proliferation inhibition test upon SLFN11 knockdown, MDA-MB-468", "protocol": "as §1, with “breast” for “pharyngeal”, “MDA-MB-468” for “FaDu”, “RPMI-1640” for “a MEM”, “containing” for “containing a non-essential amino acid solution, a pyruvic acid solution and”, “[…]” for “pmol”, “and” for “and were”\nas §2, with “rate (%)” for “rate(%)”\nas §3, §4"}, "[3]": {"test_system": "Human breast cancer cell line HCC38", "assay": "Cell proliferation inhibition test upon SLFN11 knockdown, HCC38", "settings": "for Cell proliferation inhibitory effect upon SLFN11 knockdown: HCC38 cell lines, SLFN11 siRNA vs Non-targeting Control; for Fold change (SLFN11/Non-targeting Control): ratio of IC50", "protocol": "as §1, with “breast” for “pharyngeal”, “HCC38” for “FaDu”, “2×10^5” for “2×10^3”, “RPMI-1640” for “a MEM”, “containing” for “containing a non-essential amino acid solution, a pyruvic acid solution and”, “and” for “and were”\nas §2, with “rate (%)” for “rate(%)”\nas §3, with “concentration^γ/((max−50)/(50−Emin)×IC50^γ+Specimen” for “concentration^γ/((Emax−50)/(50−Emin)×IC50^γ+Specimen”\nas §4"}}, "note": "Read-outs that look alike come from different tables or passages of the source."}
{"molecule": "CC[C@@]1(O)C(=O)OCc2c1cc1n(c2=O)Cc2c-1nc1cc(F)c(C)c3c1c2[C@@H](NC(=O)CO)CC3", "note": "[Compound (1)]", "values": [{"measurement": "Cell proliferation inhibitory effect upon SLFN11 knockdown", "setting": "[1]", "value": "attenuated by SLFN11 knockdown"}, {"measurement": "Fold change (SLFN11/Non-targeting Control)", "setting": "[1]; FaDu cells", "value": 8.6}, {"measurement": "IC50", "setting": "[1]; Homo sapiens, FaDu, 72 h, read-out: IC50 (nM) Non-targeting Control Pool", "value": 3.6, "unit": "nM"}, {"measurement": "IC50", "setting": "[1]; Homo sapiens, FaDu, 72 h, read-out: IC50 (nM) SLFN11 siRNA", "value": 30.8, "unit": "nM"}, {"measurement": "IC50", "setting": "[2]; Homo sapiens, MDA-MB-468, 72 h, read-out: IC50 (nM) Non-targeting Control Pool", "value": 4.8, "unit": "nM"}, {"measurement": "IC50", "setting": "[2]; Homo sapiens, MDA-MB-468, 72 h, read-out: IC50 (nM) SLFN11 siRNA", "value": 27.5, "unit": "nM"}, {"measurement": "Cell proliferation inhibitory effect upon SLFN11 knockdown", "setting": "[2]; MDA-MB-468 cell lines, SLFN11 siRNA vs Non-targeting Control", "value": "attenuated by SLFN11 knockdown"}, {"measurement": "Fold change (SLFN11/Non-targeting Control)", "setting": "[2]; MDA-MB-468 cells, ratio of IC50", "value": 5.7}, {"measurement": "Cell proliferation inhibitory effect upon SLFN11 knockdown", "setting": "[3]", "value": "attenuated by SLFN11 knockdown"}, {"measurement": "Fold change (SLFN11/Non-targeting Control)", "setting": "[3]; HCC38 cells", "value": 2.6}, {"measurement": "IC50", "setting": "[3]; Homo sapiens, HCC38, 72 h, read-out: IC50 (nM) Non-targeting Control Pool", "value": 1.6, "unit": "nM"}, {"measurement": "IC50", "setting": "[3]; Homo sapiens, HCC38, 72 h, read-out: IC50 (nM) SLFN11 siRNA", "value": 4.2, "unit": "nM"}]}
{"molecule": "antibody-drug conjugate (1): humanized anti-hTROP2 antibody (SEQ ID NO: 1 residues 20-470, SEQ ID NO: 2 residues 21-234) conjugated to the exatecan-derivative drug-linker via a thioether bond (conjugate, chains of the INN, looked up, exatecan-derivative drug-linker) VH: QVQLVQSGAEVKKPGASVKVSCKASGYTFTTAGMQWVRQAPGQGLEWMGWINTHSGVPKYAEDFKGRVTISADTSTSTAYLQLSSLKSEDTAVYYCARSGFGSSYWYFDVWGQGTLVTVSS VL: DIQMTQSPSSLSASVGDRVTITCKASQDVSTAVAWYQQKPGKAPKLLIYSASYRYTGVPSRFSGSGSGTDFTLTISSLQPEDFAVYYCQQHYITPLTFGQGTKLEIK", "values": [{"measurement": "Cell proliferation inhibitory effect upon SLFN11 knockdown", "setting": "[1]", "value": "attenuated by SLFN11 knockdown"}, {"measurement": "IC50", "setting": "[1]; FaDu cells, Non-targeting Control Pool, 72 hours, ATPlite, read-out: IC50 (nM) Non-targeting Control Pool", "value": 42.6, "unit": "nM"}, {"measurement": "IC50", "setting": "[1]; FaDu cells, SLFN11 siRNA knockdown, 72 hours, ATPlite, read-out: IC50 (nM) SLFN11 siRNA", "value": "> 100", "unit": "nM"}, {"measurement": "Fold change (SLFN11/Non-targeting Control)", "setting": "[1]; FaDu cells", "value": ">2.3"}, {"measurement": "IC50", "setting": "[2]; MDA-MB-468 cells, Non-targeting Control Pool, 72 hours, ATPlite, read-out: IC50 (nM) Non-targeting Control Pool", "value": "> 100", "unit": "nM"}, {"measurement": "IC50", "setting": "[2]; MDA-MB-468 cells, SLFN11 siRNA knockdown, 72 hours, ATPlite, read-out: IC50 (nM) SLFN11 siRNA", "value": "> 100", "unit": "nM"}, {"measurement": "Cell proliferation inhibitory effect upon SLFN11 knockdown", "setting": "[3]", "value": "attenuated by SLFN11 knockdown"}, {"measurement": "IC50", "setting": "[3]; HCC38 cells, Non-targeting Control Pool, 72 hours, ATPlite, read-out: IC50 (nM) Non-targeting Control Pool", "value": 56.7, "unit": "nM"}, {"measurement": "IC50", "setting": "[3]; HCC38 cells, SLFN11 siRNA knockdown, 72 hours, ATPlite, read-out: IC50 (nM) SLFN11 siRNA", "value": "> 100", "unit": "nM"}, {"measurement": "Fold change (SLFN11/Non-targeting Control)", "setting": "[3]; HCC38 cells", "value": ">1.8"}]}
